Measurements: patent publication US10842774B2, “Inhibited expression of PD-L1 and enhanced expression of PD-1” (IN Ingredients, Inc., priority 2017, dated 2020)

What was measured:
PD-1 [1] = test: Immunofluorescence densitometry of PDCD-1 (PD-1) expression in human macrophage-like THP-1 cells; format: cell-based; conditions: for percent increase of PDCD-1 expression: 24 hours at 37° C., compared to controls; for effect on PDCD-1 expression (in words): all concentrations tested, relative to control
Procedure: In the present study, human macrophage-like THP-1 cells were used to determine the effects of active agents.
Immunofluorescence studies were utilized to explore the effects of an active composition including Type-A polymers on PD-L1 and PD-1 proteins. Doubly linked procyanidin type-A polymers (3% by weight) in a dried extract of bark from C. burmanni was prepared as described (Anderson et al., J. Agric. Food Chem. 2004; 52:65-70), or provided by IN Ingredients Inc. (formerly Integrity Nutraceuticals, Columbia, Tenn., USA) as CINNULIN PF. The dried extract composition was solvated in DMSO and stored at −20° C. until use. The antibodies (anti-PD-L1, anti-PD-1) were all obtained from Santa Cruz Biotech. All other reagents used were of the highest grade available in commercial products.
(§1) Human monocytic THP-1 cells were purchased from ATCC, Manassas, Va. and were maintained in RPMI culture medium supplemented with 10% heat inactivated fetal bovine serum, 10 mM Hepes, 0.1 mM MEM non-essential amino acids, 1 mM sodium pyruvate, and […] penicillin/streptomycin in an atmosphere containing 5% CO2 and 95% air at 37° C. THP-1 monocytes were differentiated in macrophages by 48 hour incubation with phorbol 12-myristate 13-acetate (PMA, Sigma, P8139) in RPMI media at a concentration of 10 ng/mL. Cells were incubated with or without the treatment compounds at dosages indicated below at 37° C. for 24 hours. In certain treatment with LPS studies, the cells were incubated in fresh F-12 K medium supplemented with 10 μg/mL LPS and the type-A polymers at a concentration (from 3% extract) of 0 μg/ml, 5 μg/ml, 10 μg/ml, 25 μg/ml, or 50 μg/ml for 24 h at 37° C. In other treatment with LPS studies, the cells were incubated in fresh F-12 K medium supplemented with 10 μg/mL LPS and cinnamtannin D-1 at a concentration 2.5 μg/ml, 5 μg/ml, 10 μg/ml or 25 μg/ml for 24 h at 37° C.
(§2) Cells were rinsed with ice-cold PBS and fixed with 4% paraformaldehyde for 10 min at room temperature, followed by permeabilization with 0.3% Triton x-100 for 10 min. After being washed with PBS three times, cells were incubated for 1 h in PBS containing 10% normal goat serum blocking solution. The cells were subjected to immunofluorescence staining with the specific antibodies (human macrophage-like THP-1 cells analyzed for PD-1 (Santa Cruz Biotech)) overnight at 4° C. The cells were then washed with cold PBS three times for 3 min each, and incubated with Alexa-labeled secondary antibodies (Invitrogen) at room temperature for 1 h. The cells were examined by fluorescence microscopy (a Nikon TE2000-S microscope, Nikon, Tokyo, Japan). For cell counts, five to ten random fields with approximately similar density of cells in each field were selected for analysis in each plate. Fluorescence intensities (with pixel values exceeding five times the standard deviation of the background) from these images were semi-quantitatively analyzed by densitometry (ImageJ software, NIH Image).

PD-L1 [2] = test: Immunofluorescence densitometry of PD-L1 expression in rat C6 glioma cells; format: cell-based; conditions: for percent inhibition of PD-L1 expression: 24 h, compared to controls; for effect on PD-L1 expression (in words): all concentrations tested
Procedure: (§3) Immunofluorescence studies were utilized to explore the effects of an active composition including Type-A polymers on PD-L1 proteins. Purified cinnamtannin B1 and cinnamtannin D1 are obtained from Planta Analytica (New Milford, Conn.). A water extract of cinnamon with at least 3% by weight type-A polymers was obtained from IN Ingredients sold as CINNULIN PF. Each dried material was solvated in DMSO and stored at −20° C. until use. The antibodies (anti-PD-L1) were all obtained from Santa Cruz Biotech. All other reagents used were of the highest grade available in commercial products.
(§4) C6 glioma cells (CCL-107) were purchased from American Type Culture Collection (ATCC; Manassas, Va.). Cell cultures were grown in F-12 K medium (Gibco/Invitrogen) supplemented with 10% horse serum and 2% fetal bovine serum and maintained in a humidified atmosphere containing 5% CO2 and 95% air at 37° C. Cultures were grown to 85% confluency in 75 mm flasks, and cells were subcultured by trypsinization of subconfluent cultures using 0.05% trypsin with EDTA. C6 glioma cells were seeded at a density of 0.5×10^6 cells per 35 mm dish, and cultured for two days. Cells were grown to confluence during the experimental period. Three studies were performed: 1) no other treatment of the cells; 2) treatment with LPS (10 μg/mL); and 3) treatment with TNF-α (10 ng/mL). In some studies, cells were incubated in fresh F-12K medium supplemented with either cinnamtannin D1 (at a concentration of 0 μg/ml, 5 μg/ml, 10 μg/ml, 20 μg/ml, 25 μg/ml, or 50 μg/ml) or cinnamtannin B1 (at a concentration of 0 μg/ml, 5 μg/ml, 10 μg/ml, 20 μg/ml, 25 μg/ml, or 50 μg/ml) for 24 h at 37° C. In certain treatment with LPS studies, the cells were incubated in fresh F-12 K medium supplemented with 10 μg/mL LPS or incubated in fresh F-12 K medium supplemented with 10 μg/mL LPS and cinnamtannin D1 at a concentration 10 μg/ml or 50 μg/ml (5 μg/ml and 25 μg/ml were not tested) for 24 h at 37° C. In certain treatment with TNF-α studies, the cells were incubated in fresh FK-12 medium supplemented with 10 ng/mL TNF-α and cinnamtannin D1 at a concentration 10 μg/ml, 20 μg/ml or 50 μg/ml (5 μg/ml was not tested) for 24 h at 37° C.
as §2, with “(Rat C6 glioma cells studied for PD-L1 (Santa Cruz Biotech); human” for “(human”

PD-1 [3] = test: Immunofluorescence densitometry of PDCD-1 (PD-1) expression in human macrophage-like THP-1 cells; format: cell-based; conditions: 20 μg/ml, 24 hours at 37° C., compared to controls
PD-1 [4] = test: Immunofluorescence densitometry of LPS-induced PDCD-1 down expression in human macrophage-like THP-1 cells; format: cell-based; conditions: LPS 10 μg/ml; for percent inhibition of LPS-induced PDCD-1 down expression: 24 h
Procedure: as §1, §2

PD-L1 [5] = test: TNF-α-induced overexpression of PD-L1 in rat C6 glioma cells (immunofluorescence densitometry); format: cell-based; conditions: TNF-α 10 ng/ml; for percent inhibition of TNF-α-induced overexpression of PD-L1: 24 h, rat C6 glioma cells
Procedure: as §3
as §4, with “In certain treatment with TNF-α studies, the cells were incubated in fresh FK-12 medium supplemented with 10 ng/mL TNF-α and cinnamtannin D1 at a concentration 10 μg/ml, 20 μg/ml or 50 μg/ml (5 μg/ml was not tested) for 24 h at 37° C.” left out
(§5) Cells were rinsed with ice-cold PBS and fixed with 4% paraformaldehyde for 10 min at room temperature, followed by permeabilization with 0.3% Triton x-100 for 10 min. […] The cells were subjected to immunofluorescence staining with the specific antibodies (Rat C6 glioma cells studied for PD-L1 (Santa Cruz Biotech); human macrophage-like THP-1 cells analyzed for PD-1 (Santa Cruz Biotech)) overnight at 4° C. […] The cells were examined by fluorescence microscopy (a Nikon TE2000-S microscope, Nikon, Tokyo, Japan). […] Fluorescence intensities (with pixel values exceeding five times the standard deviation of the background) from these images were semi-quantitatively analyzed by densitometry (ImageJ software, NIH Image).

PD-L1 [6] = test: LPS-induced overexpression of PD-L1 in rat C6 glioma cells (immunofluorescence densitometry); format: cell-based; conditions: LPS 10 μg/ml; for percent inhibition of LPS-induced overexpression of PD-L1: 24 h, rat C6 glioma cells
Procedure: as §3
C6 glioma cells (CCL-107) were purchased from American Type Culture Collection (ATCC; Manassas, Va.). Cell cultures were grown in F-12 K medium (Gibco/Invitrogen) supplemented with 10% horse serum and 2% fetal bovine serum and maintained in a humidified atmosphere containing 5% CO2 and 95% air at 37° C. Cultures were grown to 85% confluency in 75 mm flasks, and cells were subcultured by trypsinization of subconfluent cultures using 0.05% trypsin with EDTA. C6 glioma cells were seeded at a density of 0.5×10^6 cells per 35 mm dish, and cultured for two days. Cells were grown to confluence during the experimental period. Three studies were performed: 1) no other treatment of the cells; 2) treatment with LPS (10 μg/mL); and 3) treatment with TNF-α (10 ng/mL). […]
as §5

PD-L1 [7] = conditions: treatment for metastatic melanoma (Laubli et al. 2015); cited from earlier work

Compound	percent increase of PDCD-1 expression (PD-1 [1]; 2.5 μg/ml)	percent increase of PDCD-1 expression (PD-1 [1]; 5 μg/ml)	percent increase of PDCD-1 expression (PD-1 [1]; 10 μg/ml)	effect on PDCD-1 expression (in words) (PD-1 [1])	percent inhibition of PD-L1 expression (PD-L1 [2]; 5 μg/ml)	percent inhibition of PD-L1 expression (PD-L1 [2]; 10 μg/ml)	percent inhibition of PD-L1 expression (PD-L1 [2]; 25 μg/ml)	percent inhibition of PD-L1 expression (PD-L1 [2]; 50 μg/ml)	effect on PD-L1 expression (in words) (PD-L1 [2])	percent increase of PDCD-1 expression (PD-1 [3])	percent increase of PDCD-1 expression (PD-1 [1]; 50 μg/ml)	also measured
Oc1cc(O)c2c(c1)O[C@@]1(c3ccc(O)c(O)c3)Oc3cc(O)c4c(c3[C@@H]2C1O)OC(c1ccc(O)c(O)c1)[C@H](O)C4c1c(O)cc(O)c2c1O[C@H](c1ccc(O)c(O)c1)[C@H](O)C2 (some centres unmarked) [cinnamtannin B-1, cinnamtannin B1]	21%	42%	83%	significantly enhanced	35.7%	60.8%	54.9%	41.9%	significantly inhibited	62%	–	–
Oc1cc(O)c2c(c1)O[C@@]1(c3ccc(O)c(O)c3)Oc3cc(O)c4c(c3[C@@H]2[C@H]1O)O[C@H](c1ccc(O)c(O)c1)[C@H](O)[C@H]4c1c(O)cc(O)c2c1O[C@H](c1ccc(O)c(O)c1)[C@@H](O)C2 [cinnamtannin D-1, (2R,3R,4S,8S,14R, 15R)-2,8-bis(3,4-dihydroxyphenyl)-4-[(2R,3S)-2-(3,4-dihydroxyphenyl)-3,5,7-trihydroxy-3,4-dihydro-2H-1-benzopyran-8-yl]-3,4-dihydro-2H,8H,14H-8,14-methano-1,7,9-trioxabenzo[6,7]cycloocta[1,2-a]naphthalene-3,5,11,13,15-pentol]	18%	45%	87%	significantly enhanced	39.9%	66.8%	58.1%	43.6%	significantly inhibited	71%	–	percent inhibition of LPS-induced PDCD-1 down expression (PD-1 [4]; 2.5 μg/ml): 42%; percent inhibition of LPS-induced PDCD-1 down expression (PD-1 [4]; 5 μg/ml): 98%; percent inhibition of LPS-induced PDCD-1 down expression (PD-1 [4]; 10 μg/ml): 81%; percent inhibition of LPS-induced PDCD-1 down expression (PD-1 [4]; 25 μg/ml): 48%; effect on LPS-induced PD-1 down-regulation (in words) (PD-1 [4]; all concentrations tested): significantly improved; percent inhibition of TNF-α-induced overexpression of PD-L1 (PD-L1 [5]; 10 μg/ml): 32.0%; percent inhibition of TNF-α-induced overexpression of PD-L1 (PD-L1 [5]; 20 μg/ml): 42.2%; percent inhibition of TNF-α-induced overexpression of PD-L1 (PD-L1 [5]; 50 μg/ml): 43.9%; effect on TNF-α-induced overexpression of PD-L1 (in words) (PD-L1 [5]; all concentrations tested (10, 20, 50 μg/ml)): significantly inhibited; percent inhibition of LPS-induced overexpression of PD-L1 (PD-L1 [6]; 10 μg/ml): 48.9%; percent inhibition of LPS-induced overexpression of PD-L1 (PD-L1 [6]; 50 μg/ml): 53.0%; effect on LPS-induced overexpression of PD-L1 (in words) (PD-L1 [6]; all concentrations tested): significantly inhibited
O=C(O)c1cc(O)c(O)c(O)c1 [garlic acid]	–	–	47%	significantly enhanced	–	–	–	–	–	71%	52%	–
O=c1c(O)c(-c2ccc(O)c(O)c2)oc2cc(O)cc(O)c12 [quercetin]	–	–	33%	significantly enhanced	–	–	–	–	–	78%	57%	–
C[C@@H]1O[C@@H](OC[C@H]2O[C@@H](Oc3c(-c4ccc(O)c(O)c4)oc4cc(O)cc(O)c4c3=O)[C@H](O)[C@@H](O)[C@@H]2O)[C@H](O)[C@H](O)[C@H]1O [rutin]	–	–	17%	–	–	–	–	–	–	48%	43%	–
pembrolizumab: antibody therapeutic cited for targeted inhibition of PD-L1 with cardiac side effect	–	–	–	–	–	–	–	–	–	–	–	cardiac side effect associated with treatment (PD-L1 [7]): acute heart failure due to autoimmune myocarditis
